By IC50 is commonly meant the concentration at which inhibition is half-maximal.

The target of this test is T1, Lysyl oxidase homolog 2 (Homo sapiens, UniProt Q9Y4K0).
T1 sequence (Q9Y4K0 whole entry): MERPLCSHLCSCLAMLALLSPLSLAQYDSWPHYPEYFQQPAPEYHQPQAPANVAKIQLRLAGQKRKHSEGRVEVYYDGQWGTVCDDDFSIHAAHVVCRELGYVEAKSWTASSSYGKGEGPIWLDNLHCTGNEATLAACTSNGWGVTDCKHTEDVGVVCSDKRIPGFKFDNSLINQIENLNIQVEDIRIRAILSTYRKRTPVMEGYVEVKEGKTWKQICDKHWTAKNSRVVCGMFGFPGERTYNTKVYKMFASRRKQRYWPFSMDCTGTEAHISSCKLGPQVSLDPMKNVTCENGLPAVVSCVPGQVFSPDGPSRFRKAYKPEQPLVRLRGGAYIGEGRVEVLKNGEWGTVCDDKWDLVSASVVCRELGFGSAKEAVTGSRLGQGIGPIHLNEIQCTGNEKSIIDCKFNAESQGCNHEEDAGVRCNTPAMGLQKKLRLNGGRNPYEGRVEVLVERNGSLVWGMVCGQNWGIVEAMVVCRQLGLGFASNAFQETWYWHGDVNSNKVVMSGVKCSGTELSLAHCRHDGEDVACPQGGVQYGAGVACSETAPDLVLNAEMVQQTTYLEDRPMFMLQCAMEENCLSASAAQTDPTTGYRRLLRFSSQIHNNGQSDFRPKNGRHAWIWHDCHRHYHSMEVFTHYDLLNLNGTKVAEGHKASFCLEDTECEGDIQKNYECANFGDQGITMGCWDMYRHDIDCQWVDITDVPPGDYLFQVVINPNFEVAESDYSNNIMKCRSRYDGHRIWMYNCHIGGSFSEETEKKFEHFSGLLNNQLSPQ
As to the kind of experiment: Human LOXL2 Amine Oxidase Activity Assay: LOXL2 amine oxidase activity is evaluated by measuring Amplex Red fluorescence using 10-20× concentrated conditioned media from CHO cells stably expressing human LOXL2. To assay for amine oxidase activity, 10 μL of the concentrated conditioned media is incubated with 2 μL of test compound in DMSO and 73 μL Assay Buffer (50 mM Borate Buffer, pH8) for 2 h at 37° C. After the 2 h incubation, 5 μl of 10 mM 1,5-Diaminopentane (DAP) diluted in Assay Buffer and 10 μl of Amplex Red Mix (8.5 μl Assay Buffer+0.5 μl of 10 mM Amplex Red+1 μl of 500 U/ml Horseradish Peroxidase) are added and the plate mixed and immediately placed on the FlexStaion for fluorescence measurements. Fluorescence is read in kinetic mode every 2 min for 1 hour at excitation=544 and emission=590. The amine oxidase activity is calculated from the slope of the linear portion of the curve.

With `NCc1ccnc(C(=O)NCc2ccccc2)c1`, the IC50 was under 300 nM.
In the case of `CCN1CCN(Cc2ccc(CNC(=O)c3cccc(Oc4cc(CN)ccn4)c3)cc2)CC1`, the IC50 was under 300 nM.

The values above are taken from ChEMBL document CHEMBL5729152, “Lysyl oxidase-like 2 inhibitors and uses thereof” (2022).
